Literature values, collected in US20070053892A1, “Methods and kits for co-administration of nutritional supplements” (Everett Laboratories, Inc., priority 2005, published 2007).

What was measured:
[1] = patients with hypertension
[2] = patients with congestive heart failure
[3] = patients with ischemic heart disease
[4] = patients with cardiomyopathy

COC1=C(OC)C(=O)C(C/C=C(\C)CC/C=C(\C)CC/C=C(\C)CC/C=C(\C)CC/C=C(\C)CC/C=C(\C)CC/C=C(\C)CC/C=C(\C)CC/C=C(\C)CCC=C(C)C)=C(C)C1=O [CoQ10, coenzyme Q10]
blood pressure [1]: significantly reduce blood pressure | myocardial metabolic function, blood pressure, myocardial thickness [2]: improve myocardial metabolic function, reduce blood pressure, and reduce myocardial thickness | magnitude and rate of clinical improvement [3]: enhances both the magnitude and rate of clinical improvement | cardiac function including ejection fraction and cardiac output [4]: significant improvement in cardiac function
